Experimental findings from US10995117B2, “Peptide for skin regeneration or wound treatment and use thereof” (KINE SCIENCES CO., LTD., priority 2016, dated 2021) are described below.

In assay [1] the test system is B16F10 cells. Description: Melanin production of melanoma cell line. In kind it is cell-based. The following applies: 24 hours. Here is the method: The color of the skin is determined by an amount of melanin pigment produced by melanoma cells, and many studies have been conducted to improve abnormal pigmentation of the skin. Particularly, excessive pigmentation caused by chronic gashes is considered as a major medical problem, but no definitive treatment method has yet been developed. Thus, in Example 2, the production ability of melanin of a melanoma cell line according to the treatment of the peptide (peptide 1) prepared in Example 1 was evaluated by an experimental method disclosed in the existing document (Life Sci. 2013 Aug. 14; 93(5-6):226-32). The melanoma cell line, B16F10 cells, was cultured in a DMEM medium added with 10% fetal bovine […], and the cultured cells were divided into a 12 well-plate at a concentration of 1×10^5 cells/well. After the culture for 24 hours, α-MSH (10 uM) promoting melanin synthesis and the peptide (1, 10, and 100 ng/ml) of the present invention were treated and cultured again for 24 hours, added with 200 μl of a 1N NaOH solution after washing each well with PBS, and then dissolved at 100° C. for 30 minutes. Thereafter, the absorbance was measured at 405 nm with an ELISA reader to confirm the amount of melanin produced from the melanoma cell line. Meanwhile, an untreated group was used as a control group and a α-MSH-treated group was used as a positive control group.

Assay [2] deals with T1, tyrosinase (Mus musculus, UniProt P11344).
T1 construct: endogenous in cells; host or cells: B16F10 melanoma cells stimulated with alpha-MSH; Triton X-100 lysate supernatant
T1 sequence (P11344 19-533): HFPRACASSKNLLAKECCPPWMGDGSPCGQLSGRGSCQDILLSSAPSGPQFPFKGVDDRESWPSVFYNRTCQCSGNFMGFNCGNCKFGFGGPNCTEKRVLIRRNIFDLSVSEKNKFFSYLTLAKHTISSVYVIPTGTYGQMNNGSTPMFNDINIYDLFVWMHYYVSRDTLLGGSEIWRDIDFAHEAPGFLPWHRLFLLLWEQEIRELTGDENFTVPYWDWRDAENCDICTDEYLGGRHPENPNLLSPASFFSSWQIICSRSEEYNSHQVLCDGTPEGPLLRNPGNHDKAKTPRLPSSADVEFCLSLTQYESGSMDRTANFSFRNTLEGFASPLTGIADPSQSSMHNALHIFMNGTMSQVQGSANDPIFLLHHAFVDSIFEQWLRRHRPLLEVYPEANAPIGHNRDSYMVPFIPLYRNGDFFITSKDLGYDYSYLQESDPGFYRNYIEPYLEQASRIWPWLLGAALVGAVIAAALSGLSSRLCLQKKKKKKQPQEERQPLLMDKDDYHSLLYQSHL
Nature of the assay: Tyrosinase activity of melanoma cell line (L-DOPA). In kind it is cell-based. The following applies: 24 hours. Here is the method: Tyrosinase as a rate-regulating enzyme that catalyzes the reaction in the melanin biosynthesis process was known to play a crucial role in regulating the amount of melanin in the cells. Thus, in Example 4, the tyrosinase activity of the melanoma cell line according to the treatment of the peptide (peptide 1) prepared in Example 1 was evaluated by an experimental method disclosed in the existing document (J. Dermatol. Sci. Vol. 57 (2010) 170-177). The melanoma cell line, B16F10 cells, was divided into a 12 well-plate at a concentration of 1×10^5 cells/well and cultured for 24 hours, and then treated with α-MSH ([…]) and the peptide of the present invention (1, 10, 100 ng/ml), cultured for 24 hours again, and then was washed with PBS and suspended in a 50 mM phosphate buffer (pH 6.8) containing 1% Triton X-100 after washing each well with PBS. After vortexing, the cells was frozen at […] for 30 minutes, dissolved at room temperature, and centrifuged at 1000 g for 10 minutes, and then 40 μl of a supernatant and 100 μl of 10 mM L-DOPA were added to a 96 well-plate and reacted at 37° C. Thereafter, the absorbance was measured at 405 nm with an ELISA reader to confirm the tyrosinase activity of the melanoma cell line. Meanwhile, a separate untreated group was used as a control group and a α-MSH-treated group and a Kojic acid-treated group were used as a positive control group.

Assay [3] relates to Col1A1 (collagen type I, alpha 1) mRNA. Description: Col1A1 mRNA expression of human dermal fibroblasts (real-time PCR). In kind it is cell-based. The settings on record: at a concentration of 10 ng/ml or more. Here is the method: (§1) Collagen is a main ingredient of skin connective tissues, and increased collagen expression is essential in wound healing such as a gash or skin regeneration. As a result, in Example 2, the production ability of collagen of human dermal fibroblasts (HDF) according to the treatment of the peptide (peptide 1) prepared in Example 1 was evaluated by an experimental method disclosed in the existing document (J. Biol. Chem. 1993 268(14): 9941-9944). First, the human dermal fibroblasts were cultured in a DMEM medium added with 10% fetal bovine […] (FBS), and the cultured cells were divided into a 6-well plate at a concentration of 2×10^5 cell/well and cultured for 24 hours, and then the medium was replaced with 2% FBS. After 24 hours from this, the cells were treated with the peptide (100, 10, 1 ng/ml) of the present invention, and thereafter, an amount of procollagen secreted to the culture medium was measured by using a Procollagen Type I C-peptide (PIP) EIA Kit, RNA was extracted with a Trizol reagent, and then the expression of Col1A1 (collagen type I, alpha 1) mRNA of the human dermal fibroblasts was confirmed through real-time PCR. Meanwhile, a separately untreated group (Control) was used as a control group and a TGF-treated group (TGF-) was used as a positive control group.
(In general: Real-time PCR tracks product formation cycle by cycle.)

The test system of assay [4] is HaCaT cells. Nature of the assay: Scratch assay, in vitro wound healing model. The assay is classed as cell-based, human. The settings on record: for wound size (quantified) / migration of HaCaT cells: peptide 1 or 10 ng/ml; for migration of HaCaT cells: Mitomycin C pretreated. Here is the method:
In Example 5, the wound treatment effect according to the treatment of the peptides (peptides 1 and 2) prepared in Example 1 was confirmed through a scratch assay. A human epithelial cell line, HaCaT cells was cultured for 2 hours by adding Mitomycin C (10 ug/ml) in a serum-free medium to […]. After the cells were treated with the peptide (1 or 10 ng/ml) and TGF-β (1 ng/ml) as a positive control group in a medium added with 10% FBS, the migration ability of cells was observed over time and the reduction in wound size was quantified.

For assay [5], the system named is human dermal fibroblasts. Description: Procollagen secretion of human dermal fibroblasts (PIP EIA Kit). In kind it is cell-based. The settings on record: peptide 100, 10, 1 ng/ml, versus control group and TGF-treated group. Here is the method:
as §1

Assay [6] has as its system Balb/c nude mouse. Description: Acute wound animal model, histological change (H&E staining). The assay is classed as in vivo. The following applies: skin tissue on day 5 after acute wound. Here is the method:
(§2) After an 8-week-old Balb/c nude mouse was anesthetized with Avertin (2.5%), the skin of the animal's back was cut by using a circular punch having a 10 mm diameter to induce an acute wound. The peptide was treated (500 ng/one time) at the site of excision total 5 times at 24-hour intervals at the site of excision and reduction of the wound area over time was measured for 14 days and an EGF was used as a positive control group (10 ug/one time). In this case, the peptide was treated with 20% pluronic F-127 (PBS) in a mixture state and the wound sizes over time were measured and digitized using a digital camera and an ImageJ program and compared with each other.
An acute wound was induced in the same manner as in Example 6-1, and the skin tissue was cut on 5 day after the acute wound was induced to prepare tissue fragments. Thereafter, histological changes according to peptide treatment were observed by H&E staining and observing the H&E staining by a microscope. Meanwhile, an EGF was used as a positive control group.

For assay [7], the system named is Balb/c nude mouse. Nature of the assay: Acute wound animal model, change in wound size. In kind it is in vivo. The following applies: 10 mm punch wound, 500 ng/one time, 5 times at 24-hour intervals, 14 days. Here is the method: as §2

In the case of α-MSH [reference compound], the “amount of melanin produced” value in assay [1] (α-MSH (10 uM) alone) is recorded as “a large amount of melanin was produced”. Further, the “tyrosinase activity of the melanoma cell line” value in assay [2] (B16F10 cells) is given as “greatly increased”.
Consider REGRT (peptide 1), for which, in assay [1] (α-MSH (10 uM) plus peptide 1, 10, 100 ng/ml, no significant difference from non-α-MSH-treated group), the “production amount of melanin” value is listed as “greatly reduced”. Further, the “expression of Col1A1” value in assay [3] is “significantly increased”. Besides, in assay [2] (B16F10 cells, 10, 100 ng/ml, no significant difference from Kojic acid-treated group), the “tyrosinase activity of the melanoma cell line” value is given as “greatly reduced”. Besides, the “wound size (quantified)” value in assay [4] (HaCaT cells) is reported as “significant reduction”. The “migration of HaCaT cells” value in assay [4] was “increased in a peptide concentration-dependent manner”. Besides, the “secretion amount of procollagen” value in assay [5] is “increased compared to the control group and the TGF-treated group”. In addition, in assay [6], the epithelialization result is listed as “actively progressed”; the “thicknesses of epidermis and dermis layers” value is “larger than those of a PBS negative control group”.
For the substance REGRTREGRT (peptide 2), the “wound reduction effect at low concentration” value in assay [4] (HaCaT cells, 1 ng/ml) is “definite wound reduction effect”. Moreover, the “wound size effect compared with peptide 1” value in assay [4] (HaCaT cells, 1 or 10 ng/ml) is given as “more remarkable”. In addition, the “wound size (quantified)” value in assay [4] (HaCaT cells) is recorded as “significant reduction”. In addition, in assay [4], the “migration of HaCaT cells” value is recorded as “increased in a peptide concentration-dependent manner”. Also, the “wound treatment effect compared with peptide 1” value in assay [7] is listed as “excellent effect as compared to the case treated with the peptide 1”. In assay [6], the epithelialization entry is given as “actively progressed”; the “thicknesses of epidermis and dermis layers” value was “larger than those of a PBS negative control group”.
